Measured values published in article PMC10288505, “Photoswitchable Calixarene Activators for Controlled Peptide Transport across Lipid Membranes” (Journal of the American Chemical Society, 2023).

Tested on: R8
Experiment: Indicator displacement assay with host:LCG reporter pair, guest R8
Type: binding
Settings: association constant, competitive dye displacement with LCG, 5 mM phosphate buffer pH 7.3; only the lower limit can be estimated
Excerpt: The binding affinity of the anionic calixarene activators toward cationic peptides was investigated using a small library of highly hydrophilic oligoarginines, from 3 to 8 residues. These peptides are not able to spontaneously transverse zwitterionic artificial membranes in vesicle assays, which allows the accurate evaluation of the calixarenes 1 and 2 as counterion activators without interferences from the transport of the peptide alone.[43]−[45] First, the formation of host–guest complexes between 1/2 and the selected peptides was verified by indicator displacement assays using lucigenin (LCG) as the fluorescent indicator.[46] As previously reported for other sulfonatocalixarene derivatives,[46] the formation of host–guest binding pairs between calixarenes 1/2 in the E- and Z-forms and LCG results in significant static fluorescence quenching (see Figure 2A and Figures S26 and S27). Quantitative analysis of the fluorescence titration data using a 1:1 host:guest binding model allows the determination of the respective binding constants (K) reported in Table 1. As can be observed, both 1/2 display high affinity for the LCG dye, on the 10^7 M^–1 range, which seems to be independent of the nature and conformation of the azobenzene arm. […] The host:LCG binding pairs were then employed in the above-mentioned indicator displacement assays to investigate the binding affinity of oligoarginines toward 1 and 2 (see Figure 2B and Figures S29–S33).
The binding affinities of the counterion activators and peptide complexes were analyzed by indicator displacement assays. […] Firstly, the affinity for LCG was calculated for each of the activators, by titrations followed by fluorescence spectroscopy leading to almost full quenching of the emission. […]
Figure S26 - Fluorescence titration of the lucigenin dye with increasing concentrations of A) E-1 and B) Z–1 in water (5 mM phosphate buffer pH 7.3). […]

For O=S(=O)([O-])c1cc2c(O)c(c1)Cc1cc(S(=O)(=O)[O-])cc(c1O)Cc1cc(S(=O)(=O)[O-])cc(c1OCCCCCCOc1ccc(/N=N/c3ccccc3)cc1)Cc1cc(S(=O)(=O)[O-])cc(c1O)C2.[Li+].[Li+].[Li+].[Li+] [E-1], the “Apparent affinity constant K for R8” value was >5 × 10^8 ^a M^–1.

With CCCCc1ccc(/N=N/c2ccc(OCCCOc3c4cc(S(=O)(=O)[O-])cc3Cc3cc(S(=O)(=O)[O-])cc(c3O)Cc3cc(S(=O)(=O)[O-])cc(c3O)Cc3cc(S(=O)(=O)[O-])cc(c3O)C4)cc2)cc1.[Li+].[Li+].[Li+].[Li+] [E-2] the “Apparent affinity constant K for R8” value was >5 × 10^8 ^a M^–1.
